The supplement of paper PMC10307832

Experiments:
Assay in all cases: relative viability (nuclei count vs DMSO), 5 days (fraction); higher = more cells survive
[1] = system: 201T
Summary of the method: (§1)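 Lung cancer cell lines in 1536-well plates got either a single drug or a fixed anchor-drug dose together with five library-drug doses (not always all listed) in √10 steps, by pin tool, on the day after seeding. Nuclei were counted after 5 days, and relative viability is the treated-to-vehicle ratio of nuclei counts. Values are medians of duplicate plates.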

[2] = system: BEN
Summary of the method: as §1

[3] = system: CAL-12T
Summary of the method: as §1

[4] = system: COR-L 105
Summary of the method: as §1

[5] = system: COR-L23
Summary of the method: as §1

[6] = system: EKVX
Summary of the method: as §1

[7] = system: HARA
Summary of the method: as §1

[8] = system: HCC-366
Summary of the method: as §1

[9] = system: LK-2
Summary of the method: as §1

[10] = system: LU99A
Summary of the method: as §1

[11] = system: NCI-H1437
Summary of the method: as §1

[12] = system: NCI-H1650
Summary of the method: as §1

[13] = system: NCI-H1666
Summary of the method: as §1

[14] = system: NCI-H2009
Summary of the method: as §1

[15] = system: NCI-H2023
Summary of the method: as §1

[16] = system: NCI-H2170
Summary of the method: as §1

[17] = system: NCI-H3122
Summary of the method: as §1

[18] = system: NCI-H441
Summary of the method: as §1

[19] = system: NCI-H661
Summary of the method: as §1

[20] = system: NCI-H838
Summary of the method: as §1

[21] = system: PC-14
Summary of the method: as §1

[22] = system: SW 900
Summary of the method: as §1

COc1cc(N2CCC(C(N)=O)CC2)ccc1Nc1nc(N)c(Cl)c(Nc2ccccc2S(=O)(=O)C(C)C)n1 [HG-5-88-01] + Nc1nc2[nH]cc(CCc3ccc(C(=O)N[C@@H](CCC(=O)O)C(=O)O)cc3)c2c(=O)[nH]1 [Pemetrexed] (partner 0.2 µM)
relative viability ([1]; first compound 0.04 µM): 0.301
relative viability ([1]; first compound 0.1265 µM): 0.325
relative viability ([1]; first compound 1.265 µM): 0.332
relative viability ([1]; first compound 4 µM): 0.272
relative viability ([2]; first compound 0.04 µM): 0.76
relative viability ([2]; first compound 0.1265 µM): 0.648
relative viability ([2]; first compound 0.4 µM): 0.717
relative viability ([2]; first compound 1.265 µM): 0.687
relative viability ([2]; first compound 4 µM): 0.711
relative viability ([3]; first compound 0.04 µM): 1.25
relative viability ([3]; first compound 0.1265 µM): 1.14
relative viability ([3]; first compound 0.4 µM): 1.24
relative viability ([3]; first compound 1.265 µM): 0.995
relative viability ([3]; first compound 4 µM): 0.754
relative viability ([4]; first compound 0.04 µM): 1.02
relative viability ([4]; first compound 0.1265 µM): 1.21
relative viability ([4]; first compound 0.4 µM): 1.18
relative viability ([4]; first compound 1.265 µM): 0.989
relative viability ([4]; first compound 4 µM): 0.899
relative viability ([5]; first compound 0.04 µM): 0.196
relative viability ([5]; first compound 0.1265 µM): 0.208
relative viability ([5]; first compound 0.4 µM): 0.184
relative viability ([5]; first compound 1.265 µM): 0.199
relative viability ([5]; first compound 4 µM): 0.166
relative viability ([6]; first compound 0.04 µM): 0.468
relative viability ([6]; first compound 0.1265 µM): 0.407
relative viability ([6]; first compound 0.4 µM): 0.301
relative viability ([6]; first compound 4 µM): 0.352
relative viability ([7]; first compound 0.04 µM): 0.221
relative viability ([7]; first compound 0.1265 µM): 0.225
relative viability ([7]; first compound 0.4 µM): 0.199
relative viability ([7]; first compound 1.265 µM): 0.24
relative viability ([7]; first compound 4 µM): 0.201
relative viability ([8]; first compound 0.04 µM): 0.197
relative viability ([8]; first compound 0.1265 µM): 0.146
relative viability ([8]; first compound 0.4 µM): 0.113
relative viability ([8]; first compound 1.265 µM): 0.237
relative viability ([8]; first compound 4 µM): 0.287
relative viability ([9]; first compound 0.04 µM): 0.159
relative viability ([9]; first compound 0.1265 µM): 0.295
relative viability ([9]; first compound 0.4 µM): 0.249
relative viability ([9]; first compound 4 µM): 0.202
relative viability ([10]; first compound 0.04 µM): 0.163
relative viability ([10]; first compound 0.1265 µM): 0.211
relative viability ([10]; first compound 0.4 µM): 0.165
relative viability ([10]; first compound 1.265 µM): 0.193
relative viability ([10]; first compound 4 µM): 0.168
relative viability ([11]; first compound 0.04 µM): 0.296
relative viability ([11]; first compound 0.1265 µM): 0.334
relative viability ([11]; first compound 0.4 µM): 0.267
relative viability ([11]; first compound 1.265 µM): 0.327
relative viability ([11]; first compound 4 µM): 0.277
relative viability ([12]; first compound 0.04 µM): 0.352
relative viability ([12]; first compound 0.1265 µM): 0.36
relative viability ([12]; first compound 0.4 µM): 0.346
relative viability ([12]; first compound 1.265 µM): 0.343
relative viability ([12]; first compound 4 µM): 0.354
relative viability ([13]; first compound 0.04 µM): 0.893
relative viability ([13]; first compound 0.1265 µM): 0.762
relative viability ([13]; first compound 0.4 µM): 0.828
relative viability ([13]; first compound 1.265 µM): 0.732
relative viability ([13]; first compound 4 µM): 0.592
relative viability ([14]; first compound 0.04 µM): 1.01
relative viability ([14]; first compound 0.1265 µM): 1.03
relative viability ([14]; first compound 0.4 µM): 0.959
relative viability ([14]; first compound 1.265 µM): 0.963
relative viability ([14]; first compound 4 µM): 0.975
relative viability ([15]; first compound 0.04 µM): 0.231
relative viability ([15]; first compound 0.1265 µM): 0.23
relative viability ([15]; first compound 0.4 µM): 0.175
relative viability ([15]; first compound 1.265 µM): 0.165
relative viability ([15]; first compound 4 µM): 0.171
relative viability ([16]; first compound 0.04 µM): 0.286
relative viability ([16]; first compound 0.1265 µM): 0.28
relative viability ([16]; first compound 0.4 µM): 0.261
relative viability ([16]; first compound 1.265 µM): 0.257
relative viability ([16]; first compound 4 µM): 0.249
relative viability ([17]; first compound 0.04 µM): 0.171
relative viability ([17]; first compound 0.1265 µM): 0.161
relative viability ([17]; first compound 0.4 µM): 0.144
relative viability ([17]; first compound 1.265 µM): 0.157
relative viability ([17]; first compound 4 µM): 0.115
relative viability ([18]; first compound 0.04 µM): 0.28
relative viability ([18]; first compound 0.1265 µM): 0.279
relative viability ([18]; first compound 0.4 µM): 0.229
relative viability ([18]; first compound 1.265 µM): 0.276
relative viability ([18]; first compound 4 µM): 0.258
relative viability ([19]; first compound 0.04 µM): 0.909
relative viability ([19]; first compound 0.1265 µM): 0.931
relative viability ([19]; first compound 0.4 µM): 0.883
relative viability ([19]; first compound 1.265 µM): 0.974
relative viability ([19]; first compound 4 µM): 0.965
relative viability ([20]; first compound 0.04 µM): 0.248
relative viability ([20]; first compound 0.1265 µM): 0.256
relative viability ([20]; first compound 0.4 µM): 0.209
relative viability ([20]; first compound 1.265 µM): 0.234
relative viability ([20]; first compound 4 µM): 0.246
relative viability ([21]; first compound 0.04 µM): 0.124
relative viability ([21]; first compound 0.1265 µM): 0.114
relative viability ([21]; first compound 0.4 µM): 0.0722
relative viability ([21]; first compound 1.265 µM): 0.129
relative viability ([21]; first compound 4 µM): 0.074
relative viability ([22]; first compound 0.04 µM): 0.504
relative viability ([22]; first compound 0.1265 µM): 0.512
relative viability ([22]; first compound 0.4 µM): 0.46
relative viability ([22]; first compound 1.265 µM): 0.477
relative viability ([22]; first compound 4 µM): 0.379
